Results from paper PMC3545969, “Mutagenicity and antimutagenicity of (−)-hinokinin a trypanosomicidal compound measured by Salmonella microsome and comet assays” (BMC Complementary and Alternative Medicine, 2012).
Read-outs that look alike come from different tables or passages of the source. Marks after values point to notes of the source that are not given here.

Key:
[1] = test system: epimastigote forms; settings: compared with benznidazole; cited from earlier work
[2] = test system: V79 cells; experiment: Comet assay, genotoxicity in V79 cells; type: cell-based, Chinese hamster; parameters: Class 0 / Class 1 / Class 2 / Class 3: unit not given here; settings: 3 h
Experimental: Chinese hamster lung fibroblasts (V79) were kindly supplied by Professor Cólus (Universidade Estadual de Londrina (UEL), Paraná, Brazil). Cells were maintained as monolayers in plastic culture flasks (25 cm^2) in HAM-F10 (Sigma-Aldrich) plus DMEM (Sigma-Aldrich, 1:1) culture medium supplemented with 10%; fetal bovine serum (Nutricell), antibiotics (0.01 mg mL^−1 streptomycin and 0.005 mg mL^−1 penicillin; Sigma-Aldrich) and 2.38 mg mL^−1 Hepes (Sigma-Aldrich), at 37°C in a BOD-type chamber. Under these conditions, the average cell cycle time was 12 h.
HK was first dissolved in a mixture of methanol (100 μL) and distilled water (900 μL). The final concentration of methanol in the culture was 0.1%;. The choice of concentrations was based on the results of previous experiments with HK [12]. In the experiments, 3 × 10^5 cells (V79) were seeded into tissue-culture flasks, incubated for two cycles (24 h) in complete HAM-F10/DMEM medium, washed with phosphate buffer saline (PBS), and then subjected to one of the following treatments, in serum-free medium, for 3 h. To assess genotoxicity, the cells were treated with each concentration of HK alone, while for antigenotoxicity, they were treated with the mutagen DXR (0.3 μM) in combination with each HK concentration. Positive (DXR) and negative controls were also included in the test. At the end of the treatment, the cells were washed with ice-cold PBS and trypsinized with 200 μL trypsin. After 3 min, the cells were gently resuspended in complete medium and 20 μL of the cell suspension was immediately used for the test.
The procedures described by Singh et al. were adopted, with minor modifications, as described in detail by Speit and Hartmann and reviewed by Burlinson et al.. Briefly, a microscope slide was covered with a base layer of 1.5%; normal-melting agarose (Invitrogen) and 20 μL of the test cells suspended in 120 μL 0.5%; low-melting agarose (Invitrogen) at 37°C was then spread over the base layer. A coverslip was added and the agarose allowed to solidify at 4°C for 15 min. Next, the coverslip was gently removed and the slides were immersed in freshly prepared lysing solution consisting of 89 mL stock solution (2.5 M NaCl, 100 mM EDTA, 10 mM Tris, pH 10.0, and 1%; sodium lauryl sarcosine), 10 mL DMSO and 1 mL Triton X-100, pH 10.0, at 4°C, for at least 20 h, protected from light. At the end of this period, the slides were transferred to an electrophoresis chamber containing a high pH (>13.0) buffer (300 mM NaOH, 1 mM EDTA) and incubated at 4°C for 20 min to allow the DNA to unwind. A current of 25 V (1.0 V cm^−1, 300 mA) was applied for 20 min. The slides were then submerged in a neutralization buffer (0.4 M Tris - HCl, pH 7.5) for 15 min, dried at room temperature and fixed in 100%; ethanol for 10 min.
The slides were stained with 100 μL ethidium bromide (20 μg ml^−1) and covered with a coverslip. All the slides in the experiment were coded before analysis. The stained nucleoids were immediately evaluated at 1000x magnification under a Nikon fluorescence microscope fitted with a 515–560 nm excitation filter and a 590 nm barrier filter.
For each treatment, the extent and distribution of DNA damage indicated by the comet assay were evaluated by examining 100 randomly selected and non-overlapping cells on the slides (i.e. 300 nucleoids per treatment). For each slide, the cells were visually scored and allocated to one of four classes (0, 1, 2 and 3), according to tail size, as follows: class 0, undamaged, no tail; class 1, a short tail whose length was smaller than the diameter of the comet head (nucleus); class 2, tail length between 1 and 2 times the diameter of the head; and class 3, maximally damaged: a long tail measuring more than twice the diameter of the head. The few comets containing no head and those with almost all DNA in the tail, or with a very wide tail, were excluded from the analysis since they may arise from dead cells. […]

[3] = test system: Salmonella typhimurium TA97a; settings: for % inhibition / Number of revertants(M ± SD)/ plate: TA 97a
[4] = test system: Salmonella typhimurium TA102; experiment: Ames test, antimutagenicity assay, TA102; type: cell-based
[5] = + S9, HK 19.5 μg/plate + 2-AA 1.25 μg/plate
[6] = + S9, HK 39.0 μg/plate + 2-AA 1.25 μg/plate
[7] = + S9, HK 58.5 μg/plate + 2-AA 1.25 μg/plate
[8] = + S9, HK 78.0 μg/plate + 2-AA 1.25 μg/plate
[9] = + S9, HK […] + 2-AA 1.25 μg/plate
[10] = TA 102, + S9, HK 19.5 μg/plate + 2-AF 10.0 μg/plate
[11] = TA 102, + S9, HK 39.0 μg/plate + 2-AF 10.0 μg/plate
[12] = TA 102, + S9, HK 58.5 μg/plate + 2-AF 10.0 μg/plate
[13] = TA 102, + S9, HK 78.0 μg/plate + 2-AF 10.0 μg/plate
[14] = TA 102, - S9, HK 58.5 μg/plate + MMC 0.5 μg/plate
[15] = TA 102, - S9, HK 78.0 μg/plate + MMC 0.5 μg/plate

O=C1OC[C@H](Cc2ccc3c(c2)OCO3)[C@H]1Cc1ccc2c(c1)OCO2 [HK, (−)-hinokinin]
trypanosomicidal activity against epimastigote forms [1]: higher trypanosomicidal activity than benznidazole | Class 0 ([2]; HK 0.5 μM alone): 81.6 ± 4.9 | Class 1 ([2]; HK 0.5 μM alone): 12.3± 3.5 | Class 2 ([2]; HK 0.5 μM alone): 4.3 ± 3.7 | Score ([2]; HK 0.5 μM alone): 26.0 ± 13.2 | Class 0 ([2]; HK 1.0 μM alone): 87.0 ± 5.1 | Class 1 ([2]; HK 1.0 μM alone): 11.0 ± 5.2 | Class 2 ([2]; HK 1.0 μM alone): 1.3 ± 0.5 | Class 3 ([2]; HK 1.0 μM alone): 0 | Score ([2]; HK 1.0 μM alone): 13.0 ± 5.0 | Class 0 ([2]; HK 2.0 μM alone): 83.0 ± 3.7 | Class 1 ([2]; HK 2.0 μM alone): 14.0 ± 2.5 | Class 2 ([2]; HK 2.0 μM alone): 2.0 ± 2.0 | Class 3 ([2]; HK 2.0 μM alone): 0 | Score ([2]; HK 2.0 μM alone): 18.0 ± 5.0 | Class 0 ([2]; HK 32 μM alone): 89.0 ± 2.0 | Class 1 ([2]; HK 32 μM alone): 10.0 ± 2.0 | Class 2 ([2]; HK 32 μM alone): 0.3 ± 0.5 | Class 3 ([2]; HK 32 μM alone): 0.6 ± 1.1 | Score ([2]; HK 32 μM alone): 9.6 ± 2.3 | Class 0 ([2]; HK 64 μM alone): 88.0 ± 3.6 | Class 1 ([2]; HK 64 μM alone): 11.0 ± 4.0 | Class 2 ([2]; HK 64 μM alone): 0.6 ± 1.0 | Class 3 ([2]; HK 64 μM alone): 1.0 ± 1.0 | Score ([2]; HK 64 μM alone): 13.0 ± 3.4 | % inhibition [3, 5]: 45*** % | Number of revertants(M ± SD)/ plate [3, 5]: 659 + 41 revertants/plate | % inhibition [3, 6]: 49*** % | Number of revertants(M ± SD)/ plate [3, 6]: 628 + 16 revertants/plate | % inhibition [3, 7]: 67*** % | Number of revertants(M ± SD)/ plate [3, 7]: 456 + 13 revertants/plate | % inhibition [3, 8]: 60*** % | Number of revertants(M ± SD)/ plate [3, 8]: 523 + 86 revertants/plate | % inhibition [3, 9]: 43*** % | Number of revertants(M ± SD)/ plate [3, 9]: 682 + 52 revertants/plate | Number of revertants(M ± SD)/ plate ([3]; - S9, HK 19.5 μg/plate + NOPD 10.0 μg/plate): 948 + 24 revertants/plate | Number of revertants(M ± SD)/ plate ([3]; - S9, HK 39.0 μg/plate + NOPD 10.0 μg/plate): 979 + 84 revertants/plate | Number of revertants(M ± SD)/ plate ([3]; - S9, HK 58.5 μg/plate + NOPD 10.0 μg/plate): 1006 + 54 revertants/plate | Number of revertants(M ± SD)/ plate ([3]; - S9, HK 78.0 μg/plate + NOPD 10.0 μg/plate): 1026 + 75 revertants/plate | Number of revertants(M ± SD)/ plate ([3]; - S9, HK […] + NOPD 10.0 μg/plate): 934 + 33 revertants/plate | effect on mutagenesis induced by NOPD ([3]; TA97a, absence of metabolic activation): did not reduce mutagenesis | potentiation of NOPD-induced effect (revertants vs positive control alone) ([3]; strain 97a, −S9, HK + NOPD): potentiated NOPD -induced clastogenicity | Number of revertants(M ± SD)/ plate [4]: 852 + 21 revertants/plate | % inhibition [4, 10]: 42*** % | Number of revertants(M ± SD)/ plate [4, 10]: 855 + 22 revertants/plate | % inhibition [4, 11]: 46*** % | Number of revertants(M ± SD)/ plate [4, 11]: 820 + 19 revertants/plate | % inhibition [4, 12]: 52*** % | Number of revertants(M ± SD)/ plate [4, 12]: 754 + 9 revertants/plate | % inhibition [4, 13]: 52*** % | Number of revertants(M ± SD)/ plate [4, 13]: 757 + 29 revertants/plate | % inhibition ([4]; TA 102, + S9, HK […] + 2-AF 10.0 μg/plate): 42*** % | decrease in the mutagenicity of 2-AF ([4]; TA102, +S9, dose not given): 52% | Number of revertants(M ± SD)/ plate ([4]; TA 102, - S9, HK 19.5 μg/plate + MMC 0.5 μg/plate): 1201 + 23 revertants/plate | Number of revertants(M ± SD)/ plate ([4]; TA 102, - S9, HK 39.0 μg/plate + MMC 0.5 μg/plate): 1317 + 14 revertants/plate | % inhibition [4, 14]: 18* % | Number of revertants(M ± SD)/ plate [4, 14]: 1017 + 56 revertants/plate | % inhibition [4, 15]: 22* % | Number of revertants(M ± SD)/ plate [4, 15]: 979 + 51 revertants/plate | Number of revertants(M ± SD)/ plate ([4]; TA 102, - S9, HK […] + MMC 0.5 μg/plate): 1236 + 17 revertants/plate | effect on mutagenesis induced by MMC ([4]; TA102, absence of metabolic activation): did not reduce mutagenesis
